The compounds below were run against Alpha-glucosidase MAL32 (Saccharomyces cerevisiae, UniProt P38158) (assay: α-Glucosidase Inhibition Assay). Settings: pH 6.8; 37 °C.
Method: For α-glucosidase inhibition assay, α-glucosidase enzyme (Cat No. 5003-1KU Type I; isolated from Saccharomyces cereviciae) was used. Acarbose was the reference standard and Pierre's methodology was employed [Pierre et al., J. Clin. Chem., 24:208-211]. First absorbance was taken at 400 nm after the 10 min incubation of a mixture of phosphate buffer ([…], pH 6.8), test compound ([…], 0.5 mM) and enzyme ([…], 0.0234 units, Sigma Inc.). Later, […] of p-nitrophenyl-α-D-glucopyranoside (0.5 mM, code No. N1377 from Sigma Inc) was added. After 30 min incubation at 37 °C, the absorbance was retaken at 400 nm.

Chain of Alpha-glucosidase MAL32 (P38158 whole entry): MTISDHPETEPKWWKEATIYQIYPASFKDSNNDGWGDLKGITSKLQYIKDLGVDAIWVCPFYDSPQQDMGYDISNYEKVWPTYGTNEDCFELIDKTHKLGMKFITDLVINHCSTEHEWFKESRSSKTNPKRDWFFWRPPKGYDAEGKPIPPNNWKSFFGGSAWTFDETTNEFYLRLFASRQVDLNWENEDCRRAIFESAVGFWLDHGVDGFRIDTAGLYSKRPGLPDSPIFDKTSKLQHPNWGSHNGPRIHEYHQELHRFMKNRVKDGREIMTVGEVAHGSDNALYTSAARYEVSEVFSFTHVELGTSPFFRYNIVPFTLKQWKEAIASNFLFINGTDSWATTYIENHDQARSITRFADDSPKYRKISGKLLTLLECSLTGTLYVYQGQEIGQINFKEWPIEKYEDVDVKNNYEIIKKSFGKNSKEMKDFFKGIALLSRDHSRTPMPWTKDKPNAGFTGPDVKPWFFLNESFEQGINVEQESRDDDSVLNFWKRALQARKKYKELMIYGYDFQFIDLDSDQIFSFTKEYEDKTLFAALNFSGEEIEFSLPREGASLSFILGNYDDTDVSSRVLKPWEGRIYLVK

| IC50 [µM] | Structure (SMILES) |
| --- | --- |
| 46.4 | Cc1cc(C)cc(-n2c(-c3cn(-c4ccccc4)nc3C3=CC4C=CC=CC4OC3=O)nc(-c3ccccc3)c2-c2ccccc2)c1 (stereo not given) [3-(4-(1-(3,5-Dimethylphenyl)-4,5-diphenyl-1H-imidazol-2-yl)-1-phenyl-1H-pyrazol-3-yl)-4a,8a-dihydro-2H-chromen-2-one (3d)] |
| 34.3 | O=C1OC2C=CC=CC2C=C1c1nn(-c2ccccc2)cc1-c1nc(-c2ccccc2)c(-c2ccccc2)n1-c1ccc(Br)cc1 (stereo not given) [3-(4-(1-(4-Bromophenyl)-4,5-diphenyl-1H-imidazol-2-yl)-1-phenyl-1H-pyrazol-3-yl)-4a,8a-dihydro-2H-chromen-2-one (3b)] |
| 12.7 | O=C1OC2C=CC=CC2C=C1c1nn(-c2ccccc2)cc1-c1nc(-c2ccccc2)c(-c2ccccc2)n1-c1ccc(Cl)cc1 (stereo not given) [3-(4-(1-(4-Chlorophenyl)-4,5-diphenyl-1H-imidazol-2-yl)-1-phenyl-1H-pyrazol-3-yl)-4a,8a-dihydro-2H-chromen-2-one (3a)] |
| 25.4 | COc1ccc(-n2c(-c3cn(-c4ccccc4)nc3C3=CC4C=CC=CC4OC3=O)nc(-c3ccccc3)c2-c2ccccc2)cc1 (stereo not given) [3-(4-(1-(4-Methoxyphenyl)-4,5-diphenyl-1H-imidazol-2-yl)-1-phenyl-1H-pyrazol-3-yl)-4a,8a-dihydro-2H-chromen-2-one (3c)] |
| 44.8 | CCCn1c(-c2cn(-c3ccccc3)nc2C2=CC3C=CC=CC3OC2=O)nc(-c2ccccc2)c1-c1ccccc1 (stereo not given) [3-(4-(4,5-Diphenyl-1-propyl-1H-imidazol-2-yl)-1-phenyl-1Hpyrazol-3-yl)-4a,8a-dihydro-2H-chromen-2-one (3e)] |
| 5.64 | Cc1cc(C)cc(-n2c(-c3cn(-c4ccccc4)nc3C3=CC4C=C(Br)C=CC4OC3=O)nc(-c3ccccc3)c2-c2ccccc2)c1 (stereo not given) [6-Bromo-3-(4-(1-(3,5-dimethylphenyl)-4,5-diphenyl-1Himidazol-2-yl)-1-phenyl-1H-pyrazol-3-yl)-4a,8a-dihydro-2Hchromen-2-one (3g)] |
| 5.21 | O=c1oc2ccc(Br)cc2cc1-c1nn(-c2ccccc2)cc1-c1nc(-c2ccccc2)c(-c2ccccc2)n1-c1ccc(Br)cc1 [6-Bromo-3-(4-(1-(4-bromophenyl)-4,5-diphenyl-1H-imidazol-2-yl)-1-phenyl-1H-pyrazol-3-yl)-2H-chromen-2-one (3j)] |
| 2.53 | O=c1oc2ccc(Br)cc2cc1-c1nn(-c2ccccc2)cc1-c1nc(-c2ccccc2)c(-c2ccccc2)n1-c1ccc(Cl)cc1 [6-Bromo-3-(4-(1-(4-chlorophenyl)-4,5-diphenyl-1H-imidazol-2-yl)-1-phenyl-1H-pyrazol-3-yl)-2H-chromen-2-one (3f)] |
| 9.27 | COc1ccc(-n2c(-c3cn(-c4ccccc4)nc3-c3cc4cc(Br)ccc4oc3=O)nc(-c3ccccc3)c2-c2ccccc2)cc1 [6-Bromo-3-(4-(1-(4-methoxyphenyl)-4,5-diphenyl-1Himidazol-2-yl)-1-phenyl-1H-pyrazol-3-yl)-2H-chromen-2-one (3h)] |
| 5.83 | Cc1ccc(-n2c(-c3cn(-c4ccccc4)nc3-c3cc4cc(Br)ccc4oc3=O)nc(-c3ccccc3)c2-c2ccccc2)cc1 [6-Bromo-3-(4-(4,5-diphenyl-1-(p-tolyl)-1H-imidazol-2-yl)-1-phenyl-1H-pyrazol-3-yl)-2H-chromen-2-one (3i)] |

— BindingDB's records for doi:10.1016/j.bioorg.2017.05.009 (Kinnaird College for Women, 2017)
